In BindingDB's records for doi:10.1016/j.bmcl.2019.04.027 (Gilead Sciences, 2019):

Columns and labels:
[1] = Inhibition of NS5A M28T mutant in HCV genotype 1a infected in human HuH7 replicon cells assessed as reduction in viral replication after 3 days by luciferase reporter gene assay
[2] = Inhibition of NS5A L31M mutant in HCV genotype 1a infected in human HuH7 replicon cells assessed as reduction in viral replication after 3 days by luciferase reporter gene assay
[3] = Inhibition of NS5A in HCV genotype 3a S52 infected in human HuH7 replicon cells assessed as reduction in viral replication after 3 days by luciferase reporter gene assay
[4] = Inhibition of NS5A Y93H mutant in HCV genotype 3a infected in human HuH7 replicon cells assessed as reduction in viral replication after 3 days by luciferase reporter gene assay
[5] = Inhibition of NS5A in HCV genotype 2a JFH1 infected in human HuH7 replicon cells assessed as reduction in viral replication after 3 days by luciferase reporter gene assay
[6] = Inhibition of NS5A in HCV genotype 2b MD2b-1 infected in human HuH7 replicon cells assessed as reduction in viral replication after 3 days by luciferase reporter gene assay
[7] = Inhibition of NS5A in HCV genotype 6a HK6 infected in human HuH7 replicon cells assessed as reduction in viral replication after 3 days by luciferase reporter gene assay
[8] = Inhibition of NS5A N62V mutant in HCV genotype 2a infected in human HuH7 replicon cells assessed as reduction in viral replication after 3 days by luciferase reporter gene assay
[9] = Inhibition of NS5A in wild type HCV genotype 2b AY232738 infected in human HuH7 replicon cells assessed as reduction in viral replication after 3 days by luciferase reporter gene assay
[10] = Inhibition of NS5A in wild type HCV genotype 1b infected in human HuH7 replicon cells assessed as reduction in viral replication after 3 days by luciferase reporter gene assay
[11] = Inhibition of NS5A in HCV genotype 4a ED43 infected in human HuH7 replicon cells assessed as reduction in viral replication after 3 days by luciferase reporter gene assay
[12] = Inhibition of NS5A in wild type HCV genotype 1a infected in human HuH7 replicon cells assessed as reduction in viral replication after 3 days by luciferase reporter gene assay
[13] = Inhibition of NS5A N62S mutant in HCV genotype 2a infected in human HuH7 replicon cells assessed as reduction in viral replication after 3 days by luciferase reporter gene assay
[14] = Inhibition of NS5A Y93H mutant in HCV genotype 1a infected in human HuH7 replicon cells assessed as reduction in viral replication after 3 days by luciferase reporter gene assay
[15] = Inhibition of NS5A in HCV wild type genotype 2a infected in human HuH7 replicon cells assessed as reduction in viral replication after 3 days by luciferase reporter gene assay
[16] = Inhibition of NS5A in HCV genotype 6e D88 infected in human HuH7 replicon cells assessed as reduction in viral replication after 3 days by luciferase reporter gene assay
[17] = Inhibition of NS5A Y93H mutant in HCV genotype 1b infected in human HuH7 replicon cells assessed as reduction in viral replication after 3 days by luciferase reporter gene assay
[18] = Inhibition of NS5A in HCV genotype 1a H77 infected in human HuH7 replicon cells assessed as reduction in viral replication after 3 days by luciferase reporter gene assay
[19] = Inhibition of NS5A Q30H mutant in HCV genotype 1a infected in human HuH7 replicon cells assessed as reduction in viral replication after 3 days by luciferase reporter gene assay
[20] = Inhibition of NS5A R44K mutant in HCV genotype 2b infected in human HuH7 replicon cells assessed as reduction in viral replication after 3 days by luciferase reporter gene assay
[21] = Inhibition of NS5A Y93C mutant in HCV genotype 1a infected in human HuH7 replicon cells assessed as reduction in viral replication after 3 days by luciferase reporter gene assay
[22] = Inhibition of NS5A in HCV genotype 5a SA13 infected in human HuH7 replicon cells assessed as reduction in viral replication after 3 days by luciferase reporter gene assay
[23] = Inhibition of NS5A in wild type HCV genotype 3a infected in human HuH7 replicon cells assessed as reduction in viral replication after 3 days by luciferase reporter gene assay
[24] = Inhibition of NS5A Q30R mutant in HCV genotype 1a infected in human HuH7 replicon cells assessed as reduction in viral replication after 3 days by luciferase reporter gene assay
[25] = Inhibition of NS5A K44R mutant in HCV genotype 2a infected in human HuH7 replicon cells assessed as reduction in viral replication after 3 days by luciferase reporter gene assay
[26] = Inhibition of NS5A in wild type HCV genotype 2b MD2b-1 infected in human HuH7 replicon cells assessed as reduction in viral replication after 3 days by luciferase reporter gene assay
[27] = Inhibition of NS5A P58S mutant in HCV genotype 2b infected in human HuH7 replicon cells assessed as reduction in viral replication after 3 days by luciferase reporter gene assay
[28] = Inhibition of NS5A in HCV genotype 1b Con1 infected in human HuH7 replicon cells assessed as reduction in viral replication after 3 days by luciferase reporter gene assay
[29] = Inhibition of NS5A in HCV genotype 2a J6 infected in human HuH7 replicon cells assessed as reduction in viral replication after 3 days by luciferase reporter gene assay
[30] = Inhibition of NS5A Q30E mutant in HCV genotype 1a infected in human HuH7 replicon cells assessed as reduction in viral replication after 3 days by luciferase reporter gene assay
[31] = Inhibition of NS5A A30K mutant in HCV genotype 3a infected in human HuH7 replicon cells assessed as reduction in viral replication after 3 days by luciferase reporter gene assay
[32] = Inhibition of NS5A L31M mutant in HCV genotype 2a J6 (M31) infected in human HuH7 replicon cells assessed as reduction in viral replication after 3 days by luciferase reporter gene assay

COC(=O)N[C@H](C(=O)N1CC2(CC2)C[C@H]1c1nc(-c2ccc3c(c2)C(F)(F)c2cc(-c4ccc5[nH]c([C@@H]6[C@H]7CC[C@H](C7)N6C(=O)[C@@H](NC(=O)OC)C(C)C)nc5c4)ccc2-3)c[nH]1)C(C)C [CHEBI:85089]
EC50 [1]: 1900 pM
EC50 [2]: 17000 pM
EC50 [3]: 168000 pM
EC50 [4]: > 89000 pM
EC50 [5]: 21000 pM
EC50 [6]: 530000 pM
EC50 [7]: 1100 pM
EC50 [8]: 222000 pM
EC50 [9]: 211000 pM
EC50 [10]: 4 pM
EC50 [11]: 390 pM
EC50 [12]: 31 pM
EC50 [13]: 123000 pM
EC50 [14]: 52000 pM
EC50 [15]: 209000 pM
EC50 [16]: 264000 pM
EC50 [17]: 7200 pM
EC50 [18]: 31 pM
EC50 [19]: 5700 pM
EC50 [20]: 943000 pM
EC50 [21]: 50000 pM
EC50 [22]: 150 pM
EC50 [23]: > 45000 pM
EC50 [24]: 20000 pM
EC50 [25]: 164000 pM
EC50 [26]: 865000 pM
EC50 [27]: 292000 pM
EC50 [28]: 4 pM
EC50 [29]: 249000 pM
EC50 [30]: 169000 pM
EC50 [31]: > 89000 pM

COC[C@H]1C[C@@H](c2nc(-c3ccc4c(c3)COc3cc5c(ccc6nc([C@@H]7CC[C@H](C)N7C(=O)[C@@H](NC(=O)OC)C(C)C)[nH]c65)cc3-4)c[nH]2)N(C(=O)[C@H](NC(=O)OC)c2ccccc2)C1 [GS-5816]
EC50 [1]: 105 pM
EC50 [2]: 220 pM
EC50 [3]: 4 pM
EC50 [4]: 3200 pM
EC50 [5]: 8 pM
EC50 [6]: 6 pM
EC50 [7]: 6 pM
EC50 [8]: 10 pM
EC50 [9]: 7 pM
EC50 [10]: 16 pM
EC50 [11]: 9 pM
EC50 [12]: 14 pM
EC50 [13]: 3 pM
EC50 [14]: 8500 pM
EC50 [15]: 9 pM
EC50 [16]: 130 pM
EC50 [17]: 11 pM
EC50 [18]: 14 pM
EC50 [19]: 32 pM
EC50 [20]: 11 pM
EC50 [21]: 53 pM
EC50 [22]: 54 pM
EC50 [23]: 13 pM
EC50 [24]: 31 pM
EC50 [25]: 5 pM
EC50 [26]: 4 pM
EC50 [27]: 10 pM
EC50 [28]: 16 pM
EC50 [29]: 16 pM
EC50 [30]: 250 pM
EC50 [31]: 210 pM
EC50 [32]: 16 pM
